According to patent US20250129074A1, “CHIMERIC COMPOUND FOR TARGETED DEGRADATION OF ANDROGEN RECEPTOR PROTEIN, PREPARATION METHOD THEREFOR, AND MEDICAL USE THEREOF” (Jiangsu Hengrui Pharmaceuticals Co., Ltd., priority 2021, published 2025):
Where two headings read alike, the source gives them in different places.

Key:
[1] = tested on: LNCaP cells; assay: Inhibition of LNCaP proliferation (CellTiter-Glo); type: cell-based; details: Homo sapiens, 144 h, 0.1 nM R1881, six days; for Emax: read-out: Max (maximum proliferation inhibition rate)
Method: The plate was incubated in a 37° C., 5% CO2 cell incubator for three days. […] A blank control cell well containing 0.5% DMSO and a cell-free vehicle control well were set up. The plate was incubated in a 37° C., 5% CO2 cell incubator for six days.

[2] = biological target: T1, androgen receptor (AR) (Homo sapiens, UniProt P10275, T878A); assay: Degradation activity on androgen receptor in LNCaP cells (AR ELISA); type: cell-based; details: for Dmax: read-out: Max (maximum AR degradation rate)
T1 construct: host or cells: LNCaP human prostate cancer cells
T1 sequence (P10275 1-920 T878A): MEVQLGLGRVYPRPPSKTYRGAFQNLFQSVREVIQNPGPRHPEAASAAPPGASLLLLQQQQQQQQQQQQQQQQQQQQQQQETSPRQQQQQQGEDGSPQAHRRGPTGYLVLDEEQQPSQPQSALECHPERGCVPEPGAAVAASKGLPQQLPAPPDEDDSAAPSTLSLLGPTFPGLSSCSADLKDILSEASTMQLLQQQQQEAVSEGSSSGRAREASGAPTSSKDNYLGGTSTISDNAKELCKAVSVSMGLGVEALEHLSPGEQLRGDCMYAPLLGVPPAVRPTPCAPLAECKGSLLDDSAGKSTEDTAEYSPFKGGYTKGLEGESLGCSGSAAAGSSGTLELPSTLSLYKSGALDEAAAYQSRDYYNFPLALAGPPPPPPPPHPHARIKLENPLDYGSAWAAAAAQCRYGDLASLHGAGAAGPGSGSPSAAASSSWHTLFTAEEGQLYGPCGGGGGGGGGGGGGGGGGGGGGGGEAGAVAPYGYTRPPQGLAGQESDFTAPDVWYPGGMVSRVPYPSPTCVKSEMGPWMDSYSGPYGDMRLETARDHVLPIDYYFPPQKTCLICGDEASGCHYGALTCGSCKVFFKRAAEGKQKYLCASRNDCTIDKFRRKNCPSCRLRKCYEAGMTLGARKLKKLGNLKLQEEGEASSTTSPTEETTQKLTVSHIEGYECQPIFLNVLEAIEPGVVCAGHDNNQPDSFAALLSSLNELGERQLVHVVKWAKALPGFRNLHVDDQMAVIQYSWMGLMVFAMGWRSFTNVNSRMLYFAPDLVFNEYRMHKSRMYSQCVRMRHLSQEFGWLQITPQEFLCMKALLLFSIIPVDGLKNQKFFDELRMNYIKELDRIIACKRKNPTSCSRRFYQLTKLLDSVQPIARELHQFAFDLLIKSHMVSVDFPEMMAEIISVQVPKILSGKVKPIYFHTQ
Method: The plate was incubated in a 37° C., 5% CO2 cell incubator for three days. […] A blank control cell well containing 0.5% DMSO was set up. The plate was incubated in a 37° C., 5% CO2 cell incubator for 24 hours. […] The lysate was well mixed by pipetting up and down and then centrifuged at 4000 rpm at 4° C. for 10 minutes. […] The plate was sealed and incubated in a 37° C. incubator for 1 hour. […] The plate was sealed and then incubated in a 37° C. incubator for 30 minutes.

[3] = 0.1 nM R1881, 24 hours, read-out: LNCaP DC50

C[C@H]1CC2(CCN(c3ccc(C(=O)N4CCC(CN5CCN(c6ccc(C(=O)NC7CCC(=O)NC7=O)c(F)c6)CC5)CC4)cc3)CC2)CN1c1ccc(C#N)c(Cl)c1 (stereo partly drawn) [Example 3, 4-(4-((1-(4-((S)-2-(3-Chloro-4-cyanophenyl)-3-methyl-2,8-diazaspiro[4.5]decan-8-yl)benzoyl)piperidin-4-yl)methyl)piperazin-1-yl)-N-(2,6-dioxopiperidin-3-yl)-2-fluorobenzamide]
IC50 [1]: 286 nM
Emax [1]: 60%
DC50 [2, 3]: 22.1 nM
Dmax ([2]; 0.1 nM R1881, 24 hours): 89%

C[C@H]1CC2(CCN(c3ccc(C(=O)N4CCC(CN5CCN(c6cc(NC7CCC(=O)NC7=O)ccn6)CC5)CC4)cc3)CC2)CN1c1ccc(C#N)c(Cl)c1 (stereo partly drawn) [Example 24, 2-Chloro-4-((3S)-8-(4-(4-((4-(4-((2,6-dioxopiperidin-3-yl)amino)pyridin-2-yl)piperazin-1-yl)methyl)piperidine-1-carbonyl)phenyl)-3-methyl-2,8-diazaspiro[4.5]decan-2-yl)benzonitrile]
IC50 [1]: 659 nM
Emax [1]: 54%
DC50 [2, 3]: 9.1 nM
Dmax ([2]; 0.1 nM R1881, 24 hours): 94%

C[C@H]1CC2(CCN(c3ccc(C(=O)N4CC(CN5CCN(c6cccc(NC7CCC(=O)NC7=O)c6)CC5)C4)cc3)CC2)CN1c1ccc(C#N)c(Cl)c1 (stereo partly drawn) [Example 14, 2-Chloro-4-((3S)-8-(4-(3-((4-(3-((2,6-dioxopiperidin-3-yl)amino)phenyl)piperazin-1-yl)methyl)azetidine-1-carbonyl)phenyl)-3-methyl-2,8-diazaspiro[4.5]decan-2-yl)benzonitrile]
IC50 [1]: 57 nM
Emax [1]: 69%
DC50 [2, 3]: 1.9 nM
Dmax ([2]; 0.1 nM R1881, 24 hours): 96%

C[C@H]1CC2(CCN(c3ccc(C(=O)N4CCC(N5CCN(c6ccc(C(=O)NC7CCC(=O)NC7=O)c(F)c6)CC5)CC4)cc3)CC2)CN1c1ccc(C#N)c(Cl)c1 (stereo partly drawn) [Example 1, 4-(4-(1-(4-((S)-2-(3-Chloro-4-cyanophenyl)-3-methyl-2,8-diazaspiro[4.5]decan-8-yl)benzoyl)piperidin-4-yl)piperazin-1-yl)-N-(2,6-dioxopiperidin-3-yl)-2-fluorobenzamide]
IC50 [1]: 183 nM
Emax [1]: 63%
Dmax ([2]; 0.1 nM R1881, 24 hours): 89%
DC50 ([2]; read-out: LNCaP DC50, 0.1 nM R1881, 24 hours): 10.6 nM

C[C@H]1CC2(CCN(c3ccc(C(=O)N4CCC5(CC4)CC(N4CCN(c6ccc(N7CCC(=O)NC7=O)cc6)CC4)C5)nc3)CC2)CN1c1ccc(C#N)c(Cl)c1 [Example 32, (S)-2-Chloro-4-(8-(6-(2-(4-(4-(2,4-dioxotetrahydropyrimidin-1(2H)-yl)phenyl)piperazin-1-yl)-7-azaspiro[3.5]nonane-7-carbonyl)pyridin-3-yl)-3-methyl-2,8-diazaspiro[4.5]decan-2-yl)benzonitrile]
IC50 [1]: 3.1 nM
Emax [1]: 63%
DC50 [2, 3]: 1 nM
Dmax ([2]; 0.1 nM R1881, 24 hours): 95%

C[C@H]1CC2(CCN(c3ccc(C(=O)N4CCC5(CC4)CC(N4CCN(c6ccc(N7CCC(=O)NC7=O)cc6)CC4)C5)c(F)c3)CC2)CN1c1ccc(C#N)c(Cl)c1 [Example 31, (S)-2-Chloro-4-(8-(4-(2-(4-(4-(2,4-dioxotetrahydropyrimidin-1(2H)-yl)phenyl)piperazin-1-yl)-7-azaspiro[3.5]nonane-7-carbonyl)-3-fluorophenyl)-3-methyl-2,8-diazaspiro[4.5]decan-2-yl)benzonitrile]
IC50 [1]: 12 nM
Emax [1]: 57%
DC50 [2, 3]: 8.7 nM
Dmax ([2]; 0.1 nM R1881, 24 hours): 94%

C[C@H]1CC2(CCN(c3ccc(C(=O)N4CCC(CN5CCN(c6cccc(NC7CCC(=O)NC7=O)c6)CC5)CC4)cn3)CC2)CN1c1ccc(C#N)c(Cl)c1 (stereo partly drawn) [Example 18, 2-Chloro-4-((3S)-8-(5-(4-((4-(3-((2,6-dioxopiperidin-3-yl)amino)phenyl)piperazin-1-yl)methyl)piperidine-1-carbonyl)pyridin-2-yl)-3-methyl-2,8-diazaspiro[4.5]decan-2-yl)benzonitrile]
IC50 [1]: 123 nM
Emax [1]: 72%
DC50 [2, 3]: 5.8 nM
Dmax ([2]; 0.1 nM R1881, 24 hours): 96%

C[C@H]1CC2(CCN(c3ccc(C(=O)N4CCC(CN5CCC(c6ccc(NC7CCC(=O)NC7=O)cc6)CC5)CC4)cc3)CC2)CN1c1ccc(C#N)c(Cl)c1 (stereo partly drawn) [Example 26, 2-Chloro-4-((3S)-8-(4-(4-((4-(4-((2,6-dioxopiperidin-3-yl)amino)phenyl)piperidin-1-yl)methyl)piperidine-1-carbonyl)phenyl)-3-methyl-2,8-diazaspiro[4.5]decan-2-yl)benzonitrile]
IC50 [1]: 7.8 nM
Emax [1]: 63%
DC50 [2, 3]: 2.5 nM
Dmax ([2]; 0.1 nM R1881, 24 hours): 94%

C[C@H]1CC2(CCN(c3ccc(C(=O)N4CCC5(CC4)CC(N4CCN(c6cccc(N7CCC(=O)NC7=O)c6)CC4)C5)cc3)CC2)CN1c1ccc(C#N)c(Cl)c1 [Example 35, (S)-2-Chloro-4-(8-(4-(2-(4-(3-(2,4-dioxotetrahydropyrimidin-1(2H)-yl)phenyl)piperazin-1-yl)-7-azaspiro[3.5]nonane-7-carbonyl)phenyl)-3-methyl-2,8-diazaspiro[4.5]decan-2-yl)benzonitrile]
IC50 [1]: 31 nM
Emax [1]: 57%
DC50 [2, 3]: 5.2 nM
Dmax ([2]; 0.1 nM R1881, 24 hours): 88%

C[C@H]1CC2(CCN(c3ccc(C(=O)N4CCC5(CC4)CC(N4CCN(c6ccc(C7CCC(=O)NC7=O)cc6)CC4)C5)cc3)CC2)CN1c1ccc(C#N)c(Cl)c1 (stereo partly drawn) [Example 34, 2-Chloro-4-((3S)-8-(4-(2-(4-(4-(2,6-dioxopiperidin-3-yl)phenyl)piperazin-1-yl)-7-azaspiro[3.5]nonane-7-carbonyl)phenyl)-3-methyl-2,8-diazaspiro[4.5]decan-2-yl)benzonitrile]
IC50 [1]: 12 nM
Emax [1]: 60%
DC50 [2, 3]: 5 nM
Dmax ([2]; 0.1 nM R1881, 24 hours): 96%

C[C@H]1CC2(CCN(c3ccc(C(=O)N4CCC(CN5CCC(c6ccc(NC7CCC(=O)NC7=O)cc6F)CC5)CC4)cc3)CC2)CN1c1ccc(C#N)c(Cl)c1 (stereo partly drawn) [Example 27, 2-Chloro-4-((3S)-8-(4-(4-((4-(4-((2,6-dioxopiperidin-3-yl)amino)-2-fluorophenyl)piperidin-1-yl)methyl)piperidine-1-carbonyl)phenyl)-3-methyl-2,8-diazaspiro[4.5]decan-2-yl)benzonitrile]
IC50 [1]: 7.9 nM
Emax [1]: 64%
DC50 [2, 3]: 7.7 nM
Dmax ([2]; 0.1 nM R1881, 24 hours): 96%

C[C@H]1CC2(CCN(c3ccc(C(=O)N4CCC(CN5CCC(c6cccc(NC7CCC(=O)NC7=O)c6)CC5)CC4)nn3)CC2)CN1c1ccc(C#N)c(Cl)c1 (stereo partly drawn) [Example 20, 2-Chloro-4-((3S)-8-(6-(4-((4-(3-((2,6-dioxopiperidin-3-yl)amino)phenyl)piperidin-1-yl)methyl)piperidine-1-carbonyl)pyridazin-3-yl)-3-methyl-2,8-diazaspiro[4.5]decan-2-yl)benzonitrile]
IC50 [1]: 15 nM
Emax [1]: 59%
DC50 [2, 3]: 0.4 nM
Dmax ([2]; 0.1 nM R1881, 24 hours): 92%

C[C@H]1CC2(CCN(c3ccc(C(=O)N4CCC5(CCC(N6CCN(c7ccc(N8CCC(=O)NC8=O)cc7)CC6)CC5)CC4)cc3)CC2)CN1c1ccc(C#N)c(Cl)c1 [Example 29, (S)-2-Chloro-4-(8-(4-(9-(4-(4-(2,4-dioxotetrahydropyrimidin-1(2H)-yl)phenyl)piperazin-1-yl)-3-azaspiro[5.5]undecane-3-carbonyl)phenyl)-3-methyl-2,8-diazaspiro[4.5]decan-2-yl)benzonitrile]
IC50 [1]: 81 nM
Emax [1]: 45%
DC50 [2, 3]: 12 nM
Dmax ([2]; 0.1 nM R1881, 24 hours): 93%

C[C@H]1CC2(CCN(c3ccc(C(=O)N4CCC(CN5CC(N6CCN(c7ccc(N8CCC(=O)NC8=O)cc7)CC6)C5)CC4)cc3)CC2)CN1c1ccc(C#N)c(Cl)c1 [Example 8, (S)-2-Chloro-4-(8-(4-(4-((3-(4-(4-(2,4-dioxotetrahydropyrimidin-1(2H)-yl)phenyl)piperazin-1-yl)azetidin-1-yl)methyl)piperidine-1-carbonyl)phenyl)-3-methyl-2,8-diazaspiro[4.5]decan-2-yl)benzonitrile]
IC50 [1]: 9.8 nM
Emax [1]: 31%
DC50 [2, 3]: 1.6 nM
Dmax ([2]; 0.1 nM R1881, 24 hours): 85%
